Source: US11339161B2, “Triazolo pyridines as modulators of gamma-secretase” (Boehringer Ingelheim International GmbH, priority 2017, dated 2022)
Like-named read-outs stand apart in the source and are kept apart here.

How the values were obtained:
MAP4K2 (GCK) = target: T1, MAP4K2 (GCK) (Homo sapiens, UniProt Q12851); assay: Z'-LYTE SelectScreen biochemical kinase assay MAP4K2 (GCK)
T1 sequence (Q12851 1-820): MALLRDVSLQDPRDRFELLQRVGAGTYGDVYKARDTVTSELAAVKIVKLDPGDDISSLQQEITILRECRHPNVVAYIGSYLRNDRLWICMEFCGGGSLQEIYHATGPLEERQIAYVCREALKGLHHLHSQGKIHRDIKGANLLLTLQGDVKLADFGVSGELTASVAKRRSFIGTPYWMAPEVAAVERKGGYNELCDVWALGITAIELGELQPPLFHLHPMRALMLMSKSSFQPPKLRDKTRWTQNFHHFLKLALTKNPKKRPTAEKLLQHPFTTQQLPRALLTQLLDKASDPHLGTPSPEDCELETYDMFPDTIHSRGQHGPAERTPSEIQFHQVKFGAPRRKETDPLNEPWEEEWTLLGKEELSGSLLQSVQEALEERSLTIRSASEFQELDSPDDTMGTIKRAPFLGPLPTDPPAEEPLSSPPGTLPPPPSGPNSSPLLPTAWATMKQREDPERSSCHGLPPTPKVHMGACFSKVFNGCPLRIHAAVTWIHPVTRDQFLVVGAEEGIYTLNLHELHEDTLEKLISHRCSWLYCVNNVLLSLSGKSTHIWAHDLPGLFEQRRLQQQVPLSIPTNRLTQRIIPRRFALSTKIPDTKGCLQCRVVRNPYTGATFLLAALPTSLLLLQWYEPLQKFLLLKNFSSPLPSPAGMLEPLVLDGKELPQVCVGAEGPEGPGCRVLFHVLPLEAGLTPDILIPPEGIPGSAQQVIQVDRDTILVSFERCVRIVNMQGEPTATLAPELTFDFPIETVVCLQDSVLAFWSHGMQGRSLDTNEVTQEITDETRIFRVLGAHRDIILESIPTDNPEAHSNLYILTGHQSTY
Description: (§1) Thermo Fisher Scientific SelectScreen™ Biochemical Kinase Profiling Service Z′-LYTE™ Screening Protocol and Assay Conditions Assay Theory
(§2) The […] biochemical assay employs a fluorescence-based, coupled-enzyme format and is based on the differential sensitivity of phosphorylated and non-phosphorylated peptides to proteolytic cleavage. The peptide substrate is labeled with two fluorophores—one at each end—that make up a FRET pair. In the primary reaction, the kinase transfers the gamma-phosphate of ATP to a single tyrosine, serine or threonine residue in a synthetic FRET-peptide. In the secondary reaction, a site-specific protease recognizes and cleaves non-phosphorylated FRET-peptides. Phosphorylation of FRET-peptides suppresses cleavage by the Development Reagent. Cleavage disrupts FRET between the donor (i.e., coumarin) and acceptor (i.e., fluorescein) fluorophores on the FRET-peptide, whereas uncleaved, phosphorylated FRET-peptides maintain FRET. A ratiometric method, which calculates the ratio (Emission Ratio=Coumarin emission (445 nm)/Fluorescein emission (520 nm)) of donor emission to acceptor emission after excitation of the donor fluorophore at 400 nm, is used to quantitate reaction progress, as shown in the equation below. A significant benefit of this ratiometric method for quantitating reaction progress is the elimination of well-to-well variations in FRET-peptide concentration and signal intensities. As a result, the assay yields very high Z′-factor values (>0.7) at a low percent phosphorylation. Both cleaved and uncleaved FRET-peptides contribute to the fluorescence signals and therefore to the Emission Ratio. The extent of phosphorylation of the FRET-peptide can be calculated from the Emission Ratio. The Emission Ratio will remain low if the FRET-peptide is phosphorylated (i.e., no kinase inhibition) and will be high if the FRET-peptide is non-phosphorylated (i.e., kinase inhibition).
(§3) The Test Compounds are screened in 1% DMSO (final) in the well. For 10 point titrations, 3-fold serial dilutions are conducted from the starting concentration of the customer's choosing.
(§4) All Peptide/Kinase Mixtures are diluted to a 2× working concentration in the appropriate Kinase Buffer (see section Kinase Specific Assay Conditions for a complete description).
(§5) All ATP Solutions are diluted to a 4× working concentration in Kinase Buffer (50 mM HEPES pH 7.5, 0.01% BRIJ-35, 10 mM MgCl2, 1 mM EGTA). ATP Km apparent is previously determined using a Z″-LYTE assay.
(§6) The Development Reagent is diluted in Development Buffer (see section Kinase-Specific Assay Conditions—Direct and Cascade for a complete description).
(§7) Bar-coded Corning, low volume NBS, black 384-well plate (Corning Cat. #4514) • 1. 100 nL—100× Test Compound in 100% DMSO • 2. 2.4 μL—Kinase buffer • 3. 5 μL—2× Peptide/Kinase Mixture • 4. 2.5 μL—4×ATP Solution • 5. 30—second plate shake • 6. 60—minute Kinase Reaction incubation at room temperature • 7. 5 μL—Development Reagent Solution • 8. 30—second plate shake • 9. 60—minute Development Reaction incubation at room temperature • 10. Read on fluorescence plate reader and analyze the data Z′-LYTE Assay Controls
(§8) SelectScreen Kinase Profiling Service uses XLfit from IDBS. The dose response curve is curve fit to model number 205 (sigmoidal dose-response model).
(§9) The 2×MAP4K2 (GCK)/Ser/Thr 07 mixture is prepared in 50 mM HEPES pH 7.5, 0.01% BRIJ-35, 10 mM MgCl2, 1 mM EGTA. The final 10 μL Kinase Reaction consists of 0.11-3 ng MAP4K2 (GCK) and 2 μM Ser/Thr 07 in 50 mM HEPES pH 7.5, 0.01% BRIJ-35, 10 mM MgCl2, 1 mM EGTA. After the 1 hour Kinase Reaction incubation, 5 μL of a 1:45000 dilution of Development Reagent A is added.

MAP4K4 (HGK) = MAP4K4 (HGK) (Homo sapiens, UniProt O95819); assay: Z'-LYTE SelectScreen biochemical kinase assay MAP4K4 (HGK)
Description: as §1, §2, §3, §4, §5, §6, §7, §8
as §9, with “2×MAP4K4 (HGK)/Ser/Thr” for “2×MAP4K2 (GCK)/Ser/Thr”, “0.36-1.82” for “0.11-3”, “MAP4K4 (HGK)” for “MAP4K2 (GCK)”

[1] = 10 μmolar compound concentration, ATP at Km app, read-out: MAP4K2 (GCK) inhibition
[2] = read-out: % Inhibition mean MAP4K2 (GCK)
[3] = 10 μmolar compound concentration, ATP at Km app, read-out: MAP4K4 (HGK) inhibition
[4] = read-out: % Inhibition mean MAP4K4 (HGK)

MAP4K4 (HGK), sequence (O95819 whole entry): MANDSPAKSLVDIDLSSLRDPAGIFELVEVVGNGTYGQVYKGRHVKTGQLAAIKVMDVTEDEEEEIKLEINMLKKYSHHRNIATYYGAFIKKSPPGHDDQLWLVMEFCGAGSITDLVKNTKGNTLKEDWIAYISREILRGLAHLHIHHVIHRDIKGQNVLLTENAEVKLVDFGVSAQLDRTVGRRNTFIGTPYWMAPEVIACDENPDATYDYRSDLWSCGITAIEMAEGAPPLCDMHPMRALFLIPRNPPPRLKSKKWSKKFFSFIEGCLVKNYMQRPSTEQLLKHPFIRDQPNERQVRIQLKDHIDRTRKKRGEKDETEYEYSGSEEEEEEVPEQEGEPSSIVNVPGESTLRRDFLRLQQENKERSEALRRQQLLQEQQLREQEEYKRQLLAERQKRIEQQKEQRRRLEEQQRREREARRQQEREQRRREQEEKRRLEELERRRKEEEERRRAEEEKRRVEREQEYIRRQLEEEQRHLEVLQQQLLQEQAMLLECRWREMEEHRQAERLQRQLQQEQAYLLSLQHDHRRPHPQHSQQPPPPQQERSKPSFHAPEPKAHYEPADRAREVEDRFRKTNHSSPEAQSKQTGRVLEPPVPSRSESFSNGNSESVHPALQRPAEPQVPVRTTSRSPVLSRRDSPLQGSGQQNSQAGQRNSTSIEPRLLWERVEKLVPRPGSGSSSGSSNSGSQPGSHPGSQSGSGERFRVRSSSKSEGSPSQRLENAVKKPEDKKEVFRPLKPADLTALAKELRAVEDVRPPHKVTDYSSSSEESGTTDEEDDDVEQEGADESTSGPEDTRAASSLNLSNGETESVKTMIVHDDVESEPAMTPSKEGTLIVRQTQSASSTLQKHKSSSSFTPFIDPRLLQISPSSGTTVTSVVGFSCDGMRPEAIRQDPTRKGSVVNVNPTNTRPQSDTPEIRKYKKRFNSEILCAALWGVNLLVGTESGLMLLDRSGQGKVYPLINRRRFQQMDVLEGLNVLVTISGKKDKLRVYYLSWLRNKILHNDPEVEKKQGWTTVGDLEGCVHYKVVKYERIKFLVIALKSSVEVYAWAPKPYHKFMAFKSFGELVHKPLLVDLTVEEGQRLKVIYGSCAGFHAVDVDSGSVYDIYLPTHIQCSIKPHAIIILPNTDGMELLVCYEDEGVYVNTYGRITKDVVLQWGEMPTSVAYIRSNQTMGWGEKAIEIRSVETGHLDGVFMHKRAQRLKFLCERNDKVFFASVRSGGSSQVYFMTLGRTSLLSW

inhibition at 10 µM (MAP4K2 (GCK); [1]) | inhibition at 10 µM (MAP4K2 (GCK); [2]) | inhibition at 10 µM (MAP4K4 (HGK); [3]) | inhibition at 10 µM (MAP4K4 (HGK); [4]) | inhibition at 10 µM (MAP4K2 (GCK); read-out: % Inhibition mean) | inhibition at 10 µM (MAP4K4 (HGK); read-out: % Inhibition mean) | Structure (SMILES)
40 to 80% | 43% | < 40% | 6% |  |  | Cc1cc(F)ccc1-c1cccn2nc(Nc3ccc4c(cnn4C)c3)nc12 [Example 9, [8-(4-fluoro-2-methyl-phenyl)-[1,2,4]triazolo[1,5-a]pyridine-2-yl]-(1-methyl-1H-indazol-5-yl)-amine]
< 40% | 13% | 40 to 80% | 58% |  |  | CCn1ncc2c1CCC(Nc1nc3c(-c4ccccc4)cccn3n1)C2 (stereo not shown) [Example 57, (1-Ethyl-4,5,6,7-tetrahydro-1H-indazol-5-yl)-(8-phenyl-[1,2,4]triazolo[1,5-a]pyridine-2-yl)-amine]
< 40% | 30% | 40 to 80% | 51% |  |  | CCn1ncc2c1CCC(Nc1nc3c(-c4ccc(F)cc4)cccn3n1)C2 (stereo not shown) [Example 55, (1-Ethyl-4,5,6,7-tetrahydro-1H-indazol-5-yl)-[8-(4-fluoro-phenyl)-[1,2,4]triazolo[1,5-a]pyridine-2-yl]-amine]
< 40% | 11% | < 40% | 32% |  |  | CCCCCn1ncc2c1CCC(Nc1nc3c(-c4ccc(F)cc4C)cccn3n1)C2 (stereo not shown) [Example 47, [8-(4-fluoro-2-methyl-phenyl)-[1,2,4]triazolo[1,5-a]pyridine-2-yl]-(1-pentyl-4,5,6,7-tetrahydro-1H-indazol-5-yl)-amine]
< 40% | 25% | 40 to 80% | 56% |  |  | CCn1ncc2c1CC[C@@H](Nc1nc3c(-c4ccc(F)cc4C)cccn3n1)C2 [Example R-42, (R)-(1-Ethyl-4,5,6,7-tetrahydro-1H-indazol-5-yl)-[8-(4-fluoro-2-methyl-phenyl)-[1,2,4]triazolo[1,5-a]pyridine-2-yl]-amine]
< 40% | 9% | < 40% | 39% |  |  | CCn1ncc2c1CCC(Nc1nc3c(-c4cccnc4OC)cccn3n1)C2 (stereo not shown) [Example 69, (1-Ethyl-4,5,6,7-tetrahydro-1H-indazol-5-yl)-[8-(2-methoxy-pyridin-3-yl)-[1,2,4]triazolo[1,5-a]pyridine-2-yl]-amine]
> 80% |  | > 80% |  | 98% | 98% | CC1(C)C(=O)Nc2ccc(Nc3nc4c(-c5cccc(F)c5)cccn4n3)cc21 [Cpd. 263 in WO09155551, reference compound]
< 40% | 13% | 40 to 80% | 45% |  |  | Cc1cc(F)ccc1-c1cccn2nc(NC3CCc4cnn(C)c4C3)nc12 (stereo not shown) [Example 40, [8-(4-Fluoro-2-methyl-phenyl)-[1,2,4]triazolo[1,5-a]pyridine-2-yl]-(1-methyl-4,5,6,7-tetrahydro-1H-indazol-6-yl)-amine]

More lines, now with the values behind:

Structure (SMILES) | inhibition at 10 µM (MAP4K2 (GCK); [1]) | inhibition at 10 µM (MAP4K2 (GCK); [2]) | inhibition at 10 µM (MAP4K4 (HGK); [3]) | inhibition at 10 µM (MAP4K4 (HGK); [4]) | inhibition at 10 µM (MAP4K2 (GCK); read-out: % Inhibition mean) | inhibition at 10 µM (MAP4K4 (HGK); read-out: % Inhibition mean)
CCn1nc(Cl)c2c1CCC(Nc1nc3c(-c4ccc(F)cc4C)cccn3n1)C2 (stereo not shown) [Example 48, (3-Chloro-1-ethyl-4,5,6,7-tetrahydro-1H-indazol-5-yl)-[8-(4-fluoro-2-methyl-phenyl)-[1,2,4]triazolo[1,5-a]pyridine-2-yl]-amine] | < 40% | 16% | 40 to 80% | 50% |  | 
CCn1ncc2c1CCC(Nc1nc3c(-c4ccc(OC)nc4)cccn3n1)C2 (stereo not shown) [Example 71, (1-Ethyl-4,5,6,7-tetrahydro-1H-indazol-5-yl)-[8-(6-methoxy-pyridin-3-yl)-[1,2,4]triazolo[1,5-a]pyridine-2-yl]-amine] | < 40% | 26% | < 40% | 16% |  | 
CCn1ncc2c1CCC(Nc1nc3c(-c4cccnc4)cccn3n1)C2 (stereo not shown) [Example 63, (1-Ethyl-4,5,6,7-tetrahydro-1H-indazol-5-yl)-(8-pyridin-3-yl-[1,2,4]triazolo[1,5-a]pyridine-2-yl)-amine] | < 40% | 14% | 40 to 80% | 48% |  | 
CCCCn1ncc2c1CCC(Nc1nc3c(-c4ccc(F)cc4C)cccn3n1)C2 (stereo not shown) [Example 46, [8-(4-fluoro-2-methyl-phenyl)-[1,2,4]triazolo[1,5-a]pyridine-2-yl]-(1-butyl-4,5,6,7-tetrahydro-1H-indazol-5-yl)-amine] | < 40% | 19% | 40 to 80% | 48% |  | 
CC1(C)NC(=O)c2ccc(Nc3nc4c(-c5cccc(F)c5)cccn4n3)cc21 [Cpd. 302 in WO09155551, reference compound] | > 80% |  | > 80% |  | 99% | 99%
CCn1ncc2c1CCC(Nc1nc3c(-c4ccccc4C)cccn3n1)C2 (stereo not shown) [Example 56, (1-Ethyl-4,5,6,7-tetrahydro-1H-indazol-5-yl)-[8-(2-methyl-phenyl)-[1,2,4]triazolo[1,5-a]pyridine-2-yl]-amine] | < 40% | 16% | 40 to 80% | 48% |  | 
Fc1cccc(-c2cccn3nc(Nc4ccc5[nH]cnc5c4)nc23)c1 [Cpd. 293 in WO09155551, reference compound] | > 80% |  | > 80% |  | 94% | 95%
CCn1ncc2c1CCC(Nc1nc3c(-c4cnccc4OC)cccn3n1)C2 (stereo not shown) [Example 68, (1-Ethyl-4,5,6,7-tetrahydro-1H-indazol-5-yl)-[8-(4-methoxy-pyridin-3-yl)-[1,2,4]triazolo[1,5-a]pyridine-2-yl]-amine] | < 40% | 28% | 40 to 80% | 42% |  | 
